In PubChem BioAssay (NCI) one finds GI50 and TGI data, which are given here for eight compounds.

Where “and” joins values, the source holds several entries; their conditions need not be identical. Identical values can stand only once.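 These data come from cells grown in 96-well plates and exposed to compound for 48 hours at five concentrations. Abbreviation: GI50, concentration required for 50% inhibition of growth. At the TGI there is no net growth.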 Some results are limits rather than exact numbers.

Among the test systems are IGROV1 ovarian; COLO 205 colon; MDA-MB-231 breast; HS 578T breast; OVCAR-8 ovarian; HCT-116 colon; OVCAR-5 ovarian; SK-OV-3 ovarian; U251 CNS; SW-620 colon.
Common to all, as to test: NCI tumour cell line growth inhibition, 48 h

`NC(Cc1c[nH]c2cccc(F)c12)C(=O)O` (centres undefined): the GI50 in the test on IGROV1 ovarian is 43.8 µM; with COLO 205 colon it was 43.6 µM and 302 µM; with MDA-MB-231 breast, 545 µM; with HS 578T breast, 62.9 µM and 501 µM; in the test on OVCAR-8 ovarian it was 72.5 µM and 522 µM; in the test on HCT-116 colon, 43.8 µM and 305 µM. The GI50 with OVCAR-5 ovarian was 1280 µM; with SK-OV-3 ovarian it was 518 µM; in the test on U251 CNS it was 50.8 µM and 340 µM; with SW-620 colon it was 47.7 µM and 279 µM. Besides, the TGI is 944 µM in the test on COLO 205 colon; 2300 µM in the test on MDA-MB-231 breast; > 4500 µM in the test on HS 578T breast; 2820 µM with OVCAR-8 ovarian; 1000 µM with HCT-116 colon; > 4500 µM with OVCAR-5 ovarian. The figures for the TGI with SK-OV-3 ovarian, with U251 CNS and in the test on SW-620 colon were > 4500 µM, 1280 µM and 1020 µM, respectively.
As for `NS(=O)(=O)c1cc(C(=O)O)c(Cl)c([N+](=O)[O-])c1Cl`, the TGI with IGROV1 ovarian, in the test with COLO 205 colon, in the test with MDA-MB-231 breast, in the test on HS 578T breast, in the test on OVCAR-8 ovarian and with HCT-116 colon was > 100 µM each time. In addition, the TGI with OVCAR-5 ovarian, in the test with SK-OV-3 ovarian, in the test with U251 CNS and in the test on SW-620 colon was > 100 µM in each case.
`C=CCN1C(=O)[C@]2(SC1=S)[C@H](c1cccc(Cl)c1)CN(C)[C@]21C(=O)NC2C=CC(Cl)=C[C@H]21` (some centres undefined): the GI50 in the test on IGROV1 ovarian is 2.98 µM; with COLO 205 colon, 1.78 µM; in the test on MDA-MB-231 breast, 2 µM; in the test on HS 578T breast, 3.6 µM; in the test with OVCAR-8 ovarian, 4.22 µM; with HCT-116 colon, 2.88 µM. Besides, the GI50 with OVCAR-5 ovarian was 4.35 µM; in the test with SK-OV-3 ovarian, 8.36 µM; with U251 CNS, 2.08 µM; in the test with SW-620 colon it was 2.89 µM. For the same compound, the TGI in the test on IGROV1 ovarian was 16.5 µM; in the test with COLO 205 colon it was 4.35 µM; with MDA-MB-231 breast it was 8.72 µM; with HS 578T breast it was 21.2 µM; in the test on OVCAR-8 ovarian, 17.3 µM; in the test with HCT-116 colon it was 13.9 µM. In addition, the TGI was found to be 18.1 µM with OVCAR-5 ovarian, 29.2 µM with SK-OV-3 ovarian, 4.62 µM in the test on U251 CNS and 11.6 µM in the test on SW-620 colon.
In the case of `COC(=O)[C@H](CCCCNC(=O)OCc1ccccc1)NC(=O)[C@@H](NC(=O)Nc1cc(C(F)(F)F)cc(C(F)(F)F)c1)C(C)C`, the GI50 in the test with IGROV1 ovarian, in the test with COLO 205 colon, with MDA-MB-231 breast, in the test on HS 578T breast, in the test on OVCAR-8 ovarian and in the test on HCT-116 colon was > 10 µM each time. Moreover, the GI50 in the test with OVCAR-5 ovarian, in the test with SK-OV-3 ovarian, with U251 CNS and in the test on SW-620 colon was > 10 µM in each case. In addition, the TGI with IGROV1 ovarian, in the test with COLO 205 colon, in the test with MDA-MB-231 breast, with HS 578T breast, with OVCAR-8 ovarian and in the test on HCT-116 colon was > 10 µM in each case. The TGI with OVCAR-5 ovarian, in the test with SK-OV-3 ovarian, with U251 CNS and in the test with SW-620 colon was > 10 µM each time.
With `C=C1C(=O)O[C@H]2[C@H]1CC/C(COC(=O)N[C@H](Cc1c[nH]c3ccccc13)C(=O)OC)=C\CC[C@@]1(C)O[C@@H]21`, the GI50 is 1.85 µM in the test with IGROV1 ovarian; 1.81 µM in the test with COLO 205 colon; 2 µM in the test on MDA-MB-231 breast; 12.6 µM in the test with HS 578T breast; 2.8 µM in the test on OVCAR-8 ovarian; 1.16 µM in the test with HCT-116 colon. For the same compound, the GI50 was 3.25 µM in the test on OVCAR-5 ovarian, 13.4 µM with SK-OV-3 ovarian, 10 µM in the test with U251 CNS and 1.78 µM in the test with SW-620 colon. In addition, the TGI amounted to 5.35 µM with IGROV1 ovarian; 3.76 µM in the test with COLO 205 colon; 5.59 µM in the test on MDA-MB-231 breast; 44.2 µM with HS 578T breast; 9.13 µM in the test on OVCAR-8 ovarian; 2.59 µM in the test with HCT-116 colon. Further, the TGI with OVCAR-5 ovarian was 13.8 µM; in the test on SK-OV-3 ovarian, 26.4 µM; with U251 CNS, 22.1 µM; in the test on SW-620 colon, 4.17 µM.
`COc1cccc(-c2nn(-c3ccccc3)cc2-c2ccnc(NCCCNS(=O)(=O)c3ccc(C(F)(F)F)cc3)c2)c1`: the GI50 in the test with IGROV1 ovarian is 10.7 µM; in the test on COLO 205 colon it was 2.5 µM; in the test with MDA-MB-231 breast it was 4.98 µM; in the test with HS 578T breast, 5.41 µM; in the test on OVCAR-8 ovarian, 7.13 µM; in the test on HCT-116 colon it was 4.18 µM. Besides, the GI50 in the test on OVCAR-5 ovarian is > 100 µM; in the test with SK-OV-3 ovarian it was 4.82 µM; in the test with U251 CNS, 5.63 µM; with SW-620 colon it was 11.2 µM. For the same compound, the TGI in the test with IGROV1 ovarian was > 100 µM; with COLO 205 colon, 7.77 µM; with MDA-MB-231 breast, > 100 µM; with HS 578T breast, > 100 µM; with OVCAR-8 ovarian, > 100 µM; with HCT-116 colon it was > 100 µM. The TGI with OVCAR-5 ovarian, with SK-OV-3 ovarian, in the test with U251 CNS and in the test with SW-620 colon was > 100 µM each time.
Take `NC(=O)c1ncn2c(=O)n(CCCl)nnc12`: the TGI came to 482 µM in the test with IGROV1 ovarian; 305 µM in the test on COLO 205 colon; 584 µM in the test with MDA-MB-231 breast; 695 µM with HS 578T breast; 426 µM in the test with OVCAR-8 ovarian; 369 µM with HCT-116 colon. Besides, the TGI was 608 µM with OVCAR-5 ovarian, 130 µM in the test on SK-OV-3 ovarian, 447 µM in the test with U251 CNS and 822 µM with SW-620 colon. Besides, the GI50 is 99.2 µM in the test with U251 CNS and 51.2 µM in the test with SW-620 colon.
`CCOC(=O)c1ccc(NC(=O)c2cccc(NC3=C(Cl)C(=O)N(Cc4ccccc4)C3=O)c2)cc1`: the GI50 in the test on IGROV1 ovarian is 65 µM; in the test on COLO 205 colon, > 100 µM; in the test with MDA-MB-231 breast it was 92 µM; in the test with HS 578T breast, > 100 µM; with OVCAR-8 ovarian, > 100 µM; in the test on HCT-116 colon it was > 100 µM. The GI50 in the test on SK-OV-3 ovarian, in the test with U251 CNS and with SW-620 colon was > 100 µM each time. In addition, the TGI with IGROV1 ovarian, in the test on COLO 205 colon, in the test on MDA-MB-231 breast, in the test with HS 578T breast, in the test on OVCAR-8 ovarian and with HCT-116 colon was > 100 µM throughout. Also, the TGI in the test on SK-OV-3 ovarian, with U251 CNS and in the test with SW-620 colon was > 100 µM in each case.
